The term T/C denotes the ratio of treated to control.

Assay [1] deals with Mus musculus. Nature of the assay: Maximum dose at which all tested BDF1 mice survived after 30 days of intraperitoneal dosage. It counts as functional.
The test system of assay [2] is P388. In words: Anti tumor activity expressed as median survival time of treated BDF1 mice bearing P388 leukemia cells versus untreated controls. It counts as functional, cell-based. Conditions: Mus musculus.
The subject of assay [3] is L1210. Nature of the assay: Compound was evaluated for its inhibitory dose against L1210 leukemia cell line. Conditions: Mus musculus. It counts as functional, cell-based.

Values joined by “and” are separate entries in the source; they are usually repeats but may differ in a detail not shown here. Equal entries are not always repeated.

For CISPLATIN, the LD0 in assay [1] is 30 µM/kg. In assay [2], this substance had a T/C of 205%. The same substance came in with an ID50 in assay [3] of 2.3 µM.

As for Cis-[PtCl2(gamma-pic)2] complex, in assay [2], the T/C is 105% and 119%.

The substance TRANSPLATIN showed an LD0 in assay [1] of 167 µM/kg. Further, the T/C in assay [2] came to 116%. In addition, the ID50 in assay [3] is 67 µM.

For the origin of these results see ChEMBL document CHEMBL1124651, “Cytostatic trans-platinum(II) complexes” (J Med Chem, 1989).
